From patent publication US8444970B2, “Compositions and methods for treating ocular diseases and conditions” (Lpath, Inc., priority 2006, dated 2013)
Where “and” joins values, the source holds several entries; their conditions need not be identical. Identical values can stand only once.

What was measured:
[1] = test system: HT29 colon tumor xenografts; experiment: SC HT29 colorectal tumor xenograft in nude NCr mice; format: in vivo, mouse; details: LT1009 50 mg/kg ip q2d; Avastin 20 mg/kg iv q4d; 5-FU 75 mg/kg ip q4d
Description: Nude mice were implanted sc near the right flank with one fragment per mouse of HT29 tumor from an in vivo passage. All treatments were initiated the day when 60 mice in each experiment established tumors ranging in size from approximately 100 to 200 mm^3. There were ten mice per treatment group. […] 75 mg/kg 5-FU and 20 mg/kg Avastin were administered ip and iv at a dosage of 75 mg/kg/dose and 20 mg/kg/dose, respectively, q4d, injected in a volume of 0.1 mL/10 g body weight.
(§1) Animals were observed daily for mortality. Tumor dimensions and body weights were collected twice weekly starting with the first day of treatment and including the day of study termination. When the median tumor in the vehicle-treated control group in each study reached approximately 4,000 mg, the study was terminated. Tumors from each animal were harvested, wet weights were recorded, and tumors were processed for determination of MVD by CD-31 staining. Tumor weights (mg) were calculated using the equation for an ellipsoid sphere (l×w^2)/2=mm^3, where l and w refer to the larger and smaller dimensions collected at each measurement and assuming unit density (1 mm^3=1 mg).

[2] = test system: COLO205 colorectal tumor xenograft; experiment: SC COLO205 colorectal tumor xenograft in nude NCr mice; format: in vivo, mouse; details: LT1009 50 mg/kg ip q3d; Avastin 40 mg/kg iv q7d; Paclitaxel 15 mg/kg iv q1dx5
Description: Nude mice were implanted sc near the right flank with one fragment per mouse of COLO 205 tumor from an in vivo passage. All treatments were initiated the day when 60 mice in each experiment established tumors ranging in size from approximately 100 to 200 mm3. […] Avastin was administered iv at a dosage of 40 mg/kg/dose on a q7d schedule, injected in a volume of 0.1 mL/20 g body weight. Paclitaxel (positive control), was administered iv at a dosage of 15 mg/kg/dose on a q1d×5 schedule, injected in a volume of 0.1 mL/10 g body weight.
as §1, with “recorded,” for “recorded, and”, “microvascular densities (MVD)” for “MVD”, “mm3=1” for “mm^3=1”

[3] = test system: DU145 prostate tumor xenograft; experiment: SC DU145 prostate tumor xenograft in nude NCr mice; format: in vivo, mouse; details: LT1009 50 mg/kg ip q2d; Avastin 20 mg/kg q4d; Paclitaxel 7.5 mg/kg q1dx5
Description: Nude mice were implanted sc near the right flank with one fragment per mouse of DU145 tumor from an in vivo passage. All treatments were initiated the day when 60 mice in each experiment established tumors ranging in size from approximately 100 to 200 mm^3. […] Paclitaxel and Avastin were administered iv and ip at a dosage of 7.5 mg/kg/dose and 20 mg/kg/dose, q1d×5 and q4d, respectively, injected in a volume of 0.1 mL/10 g body weight.
During the course of the study tumor growth was monitored by measuring the sc tumors on three axes and calculating the volume. At the end of the study final tumor weights and volumes were determined and then the mice were sacrificed, the tumors harvested. Microvascular densities (MVD) of the tumors were then determined by CD-31 staining.

[4] = test system: peripheral lymphocyte counts; details: single oral dose; cited from earlier work
[5] = test system: human retinal pigmented epithelial cells; experiment: alpha-SMA expression in retinal pigmented epithelial cells; format: cell-based
From the text: (§2) In many of these disorders, circulating growth factors and chemokines promote the transformation of normal ocular cells into fibrocontractile, scar tissue-producing cells that have been termed “myofibroblasts”. Normally, myofibroblasts are responsible for tissue repair as part of the wound healing response following injury. However altered number and function of myofibroblasts are implicated in diseases characterized by pathological scar tissue formation in the liver, skin, lung, kidney, heart and eyes. In the eye, transformation of retinal pigmented epithelial (RPE) cells to a myofibroblast phenotype is linked to formation of fibro-contractile membranes which cause retinal detachment and subsequent vision impairment. In addition, myofibroblast transformation of ocular fibroblasts can result in abnormal scar tissue production after eye injury leading to subsequent vision loss. Although many of the circulating protein factors in the eye that promote myofibroblast formation have been identified, nothing is known regarding the role of lysolipids such as S1P in this process. Therefore, we examined the effects of S1P on myofibroblast transformation of several human ocular cell lines.
(§3) In these experiments, the ability of S1P to promote α-SMA expression differed in a concentration dependent manner between the retinal pigmented epithelial cells and conjunctiva fibroblasts. […]

[6] = test system: human conjunctiva fibroblasts; experiment: alpha-SMA expression in conjunctiva fibroblasts; format: cell-based; details: 10 uM S1P (only at this concentration)
From the text: as §2, §3

[7] = test system: endothelial cell (EC) infiltration into Matrigel plugs; experiment: In vivo Matrigel plug assay, S1P-supplemented plugs, EC infiltration; set-up: species or system mouse; details: plugs containing S1P
Description: Based on in vivo studies showing that S1P increased endothelial capillary growth into subcutaneously implanted Matrigel plugs, we speculated that SPHINGOMAB could reduce de novo BV formation in vivo. To investigate this, we employed the in vivo Matrigel Plug assay for neovascularization. In one set of experiments, Matrigel was supplemented with either […], 0.5 μg/mL bFGF or 1 μg/mL VEGF and then injected […]. into mice (n=4). After 10 days, the mice were heparinized and injected with the fluorescent lectin, Isolectin B4-FITC, which binds to adhesion molecules expressed by vascular EC that form the growing BVs. The plugs were then excised, frozen in OCT, sectioned and viewed for FITC-stained BVs.
Sections of the plugs were then stained with hemotoxyln & eosin for evaluation of EC infiltration (FIG. 6B). The infiltration of ECs is a critical step in neo-vascularization. […] Cell infiltration is presumed to be ECs although we recognize that other cell types such as immune cells may also be stained.

Avastin: anti-angiogenic drug, bevacizumab (Avastin, Genentech)
% Reduction compared to Vehicle-Treated Mice [1]: 30% | % Reduction compared to Vehicle-Treated Mice [2]: 35% | % Reduction compared to Vehicle-Treated Mice [3]: 80% and 79%

CCCCCCCCc1ccc(CCC(N)(CO)CO)cc1 [FTY720]
reduction of peripheral lymphocyte counts [4]: 30-70%

CCCCCCCCCCCCC/C=C/[C@@H](O)[C@@H](N)COP(=O)(O)O [S1P, sphingosine-1-phosphate]
alpha-SMA expression ([5]; 0.001 uM S1P): significant increase | alpha-SMA expression ([5]; 10 uM S1P): decreased to basal levels | alpha-SMA expression [6]: significant increase | increase of EC infiltration vs Matrigel only plugs [7]: 3 fold
